In publication PMC7562955 (Nature Communications, 2020):

Experiments:
[1] = system: TLR7; assay: Glutaraldehyde crosslinking assay of ligand-induced TLR7 dimerization; format: biochemical, Monkey (Macaca mulatta)
Description: The recombinant TLR7 proteins expressed in Drosophila S2 cells (Thermo Fisher Scientific) using Monkey (Macaca mulatta) TLR7 extracellular domain expression construct with N167Q, N399Q, N488Q and N799Q mutations and cleavable Z-loop and C-terminal protein A tag were prepared and were stored in a buffer containing 10 mM Tris-HCl pH 7.5 and 150 mM NaCl at concentrations of 10–15 mg ml^−1. Briefly, the purification steps included IgG affinity purification, the Z-loop and the protein A tag cleavage, and gel-filtration chromatography. Glycan-trimmed TLR7 proteins, expressed in the presence of 1.5 mg l^−1 kifunensine (Glycosyn) and treated by Endo Hf (New England Biolabs) were used for crystallization. Glycan-untrimmed proteins were used in ITC analysis, crosslinking assay, negative-staining EM and cryo-EM (200 kV microscopes) analyses. Glycan-trimmed TLR7 proteins with partially-uncleaved protein A tag were used for cryo-EM analysis using Tatan Krios (Supplementary Fig. 11).
For glutaraldehyde crosslinking assay (Fig. 2b), proteins were buffer exchanged into a buffer containing 10 mM HEPES-NaOH, pH 8.0, 150 mM NaCl and were concentrated to ~13 mg/ml using Amicon Ultra devices (Merck). Protein concentrations were adjusted to 25 µM using buffers containing 10 mM HEPES-NaOH, pH 7.0, 150 mM NaCl (for neutral condition) or 50 mM citrate-NaOH pH 5.0, 150 mM NaCl (for acidic condition). Cpd-3, Cpd-6 or Cpd-7 were added to final concentrations of 100 or 1000 µM. The reactions were started by adding glutaraldehyde (Wako) to a final concentration of 5 mM (for neutral condition) or 20 mM (for acidic condition), incubated at ambient temperature for 25 min and quenched by adding Tris-HCl pH 7.5 to a final concentration of 100 mM. Crosslinked samples were analyzed by non-reducing SDS-PAGE. Quantitative analysis of the SDS-PAGE gel image was performed with Image-J.

[2] = target: T1, TLR7 (Homo sapiens, UniProt Q9NYK1); assay: Human TLR7 reporter gene agonistic activity assay; format: cell-based; parameters: host or cells: HEK293 (TLR7/NF-κB/SEAPorter)
T1 sequence (Q9NYK1 27-1049): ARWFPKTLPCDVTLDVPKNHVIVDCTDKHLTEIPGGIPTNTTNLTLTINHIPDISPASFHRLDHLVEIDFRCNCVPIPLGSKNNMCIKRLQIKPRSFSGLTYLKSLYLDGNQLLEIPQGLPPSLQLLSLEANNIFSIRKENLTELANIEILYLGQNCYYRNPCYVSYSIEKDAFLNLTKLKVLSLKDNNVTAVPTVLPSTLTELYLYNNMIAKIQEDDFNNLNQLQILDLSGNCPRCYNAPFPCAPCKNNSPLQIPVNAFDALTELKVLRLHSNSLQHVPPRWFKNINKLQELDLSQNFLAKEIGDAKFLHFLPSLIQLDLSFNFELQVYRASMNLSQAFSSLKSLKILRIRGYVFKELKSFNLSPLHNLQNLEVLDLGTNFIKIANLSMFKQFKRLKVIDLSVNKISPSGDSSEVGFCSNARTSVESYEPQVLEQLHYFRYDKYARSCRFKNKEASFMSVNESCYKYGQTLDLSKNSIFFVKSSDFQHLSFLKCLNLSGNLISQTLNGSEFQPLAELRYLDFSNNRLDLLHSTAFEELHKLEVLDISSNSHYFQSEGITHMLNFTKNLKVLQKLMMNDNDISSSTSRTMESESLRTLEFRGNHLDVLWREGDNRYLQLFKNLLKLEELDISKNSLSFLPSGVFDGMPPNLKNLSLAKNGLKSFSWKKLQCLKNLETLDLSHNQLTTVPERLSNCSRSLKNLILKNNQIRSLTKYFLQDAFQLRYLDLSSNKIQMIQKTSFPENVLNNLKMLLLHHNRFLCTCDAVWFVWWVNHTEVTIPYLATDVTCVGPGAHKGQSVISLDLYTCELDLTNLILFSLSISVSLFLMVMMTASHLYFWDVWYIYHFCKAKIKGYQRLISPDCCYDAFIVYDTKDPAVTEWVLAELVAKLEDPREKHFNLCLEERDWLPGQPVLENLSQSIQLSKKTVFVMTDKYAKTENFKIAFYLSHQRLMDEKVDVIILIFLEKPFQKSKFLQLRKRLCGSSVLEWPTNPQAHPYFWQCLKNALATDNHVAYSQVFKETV
Description: Compounds were dissolved in dimethyl sulfoxide. Before stimulation with compound, Human TLR7 reporter cell line (Novus Biological) was seeded in 96-well microtiter plate (AGC techno glass) at 5 × 10^4 cells/well in DMEM (GIBCO) with 10% fetal bovine serum (GIBCO), and 10 ug/ml Blastcidin S HCl (GIBCO) and incubated at 37 °C in 5% CO2. The plates were incubated over-night and then stimulated with various concentrations of compound and R848. The plates were then incubated an additional 20 ± 1 h at 37 °C in 5% CO2 and then the secreted embryonic alkaline phosphatase (SEAP) activity was measured as activation of human TLR7. The SEAP activity was evaluated as follows: pNPP (Invitrogen, USA) was added to the incubated sample (50 μl/well); after 15 min, 4 M sodium hydroxide solution (nacalai tesque, Japan) was added thereto (50 μl/well) to quench the reaction; and the absorbance of each sample was measured at 405 nm with microplate reader SpectraMax M4 (Molecular Devices, USA).

[3] = pH 5.0, ligand + (100 or 1000 µM used)
[4] = pH 5.0, ligand ++ (100 or 1000 µM used)
[5] = pH 7.0, ligand + (100 or 1000 µM used)
[6] = pH 7.0, ligand ++ (100 or 1000 µM used)

Structure (SMILES) | ligand-induced TLR7 dimerization ([1]; neutral or acidic pH) | Band intensity Dimer [1, 3] | Band intensity Monomer [1, 3] | Band intensity Dimer [1, 4] | Band intensity Monomer [1, 4] | Band intensity Dimer [1, 5] | Band intensity Monomer [1, 5] | Band intensity Dimer [1, 6] | Band intensity Monomer [1, 6] | activation of human TLR7, reporter signal ([2]; compound 0.001 nM (as headed)) | activation of human TLR7, reporter signal ([2]; compound 0.003 nM (as headed)) | activation of human TLR7, reporter signal ([2]; compound 0.01 nM (as headed)) | activation of human TLR7, reporter signal ([2]; compound 0.03 nM (as headed)) | activation of human TLR7, reporter signal ([2]; compound 0.1 nM (as headed)) | activation of human TLR7, reporter signal ([2]; compound 0.3 nM (as headed)) | activation of human TLR7, reporter signal ([2]; compound 1 nM (as headed)) | activation of human TLR7, reporter signal ([2]; compound 3 nM (as headed)) | activation of human TLR7, reporter signal ([2]; compound 10 nM (as headed)) | activation of human TLR7, reporter signal ([2]; compound 30 nM (as headed)) | activation of human TLR7, reporter signal ([2]; compound 100 nM (as headed))
COCCOc1nc(N)c2[nH]c(=O)n(Cc3cccnc3)c2n1 [Cpd-3] | induced almost complete dimerization under both neutral and acidic conditions | 16031.2 | 5165.8 | 16425.6 | 4634.68 | 17958.5 | 7371.24 | 17537.6 | 7105.24 | – | – | – | – | – | – | – | – | – | – | –
CCOCc1nc2c(N)nc3ccccc3c2n1CC(C)(C)O [R848, reference compound] | – | – | – | – | – | – | – | – | – | -0.0355 | -0.0898 | -0.0215 | 0.2447 | 1.76 | 3.124 | 3.25 | 3.172 | 3.25 | 3.234 | 3.25
